Experimental findings from patent EP1338283A1, “Use of neoruscine to treat alopecia” (Pierre Fabre Dermo-Cosmetique, priority 2002, dated 2003) are described below.

In one assay the test system is VEGF. Put plainly: VEGF assay (ELISA) in supernatants of dermal papilla cell cultures. Format: cell-based. The note with it: néoruscine 50 µg/ml, 24 h treatment, dermal papilla cells, ELISA on supernatants. On the procedure:
La suspension de cellules de la papille dermique (10^6 cellules/2 ml) dans le DMEM 10 % SVF est distribuée dans les plaques 6 puits (10^6 cellules/puits) et incubée pendant 18 heures à 37°C dans une atmosphère à 5 % CO2. Les cellules de la papille folliculaire sont alors rincées avec du PBS pour éliminer les cellules non adhérentes puis exposées pendant 24 heures aux produits à tester inclus dans du DMEM sans SVF (qui pourrait interférer dans le dosage). Pour chaque produit testé, 3 puits sont réalisés.
L'extrait de Ruscus et la néoruscine purifiée sont testés en culture.
Après 24 heures de traitement, les surnageants sont récupérés, centrifugés puis conservés à -80°C avant leur utilisation ultérieure pour le dosage du VEGF.
La production du VEGF dans les surnageants est mesurée par Kit Elisa (R&D Biosystems). Les résultats sont exprimés en picogrammes de VEGF par 10^6 cellules et en pourcentages d'activité. Dans ce test la néoruscine à 50 µg/ml stimule la production du VEGF de 329 %.
Background: ELISA stands for enzyme-linked immunosorbent assay.

Assay [1] has as its system gène cytochrome P450 aromatase. The assay can be described thus: Cytochrome P450 aromatase gene expression (RT-PCR) in dermal papilla cells. Type of assay: cell-based, humaine. The note with it: néoruscine 5 µg/ml, 3 h exposure, human dermal papilla cells. On the procedure: Nous avons évalué, dans le cadre de cet exemple, l'activité de la néoruscine sur la transcription du gène VEGF par les cellules de la papille dermique humaine en culture.
Les cellules de la papille dermique sont ensemencées à 10^6 cellules par boîte dans du DMEM à 10 % de SVF et 1 % de Pénicilline/Streptomycine pendant 24 heures à 37°C dans une atmosphère à 5 % CO2. Les cellules de la papille folliculaire sont alors rincées avec du PBS pour éliminer les cellules non-adhérentes puis exposées aux produits à tester dans du DMEM sans SVF (qui pourrait interférer dans le dosage) durant 3 heures.
Les principes actifs ont été testés en culture à des concentrations non cytotoxiques. Une boîte de culture est réalisée pour chaque lot.
Après rinçage au PBS, les boîtes de culture sont déposées sur de la glace. Les cellules sont traitées avec la solution d'extraction d'ARN, RNA βTM (1 ml/boîte). […]
Les surnageants sont prélevés, les ARN sont précipités avec de l'isopropanol. […] La quantité d'ARN ainsi que la pureté sont déterminées par spectrophotométrie.
L'ARN total (1 µg) est rétro-transcrit en ADN complémentaire une heure à 48°C avec le kit Access RT-PCR system (Promega). […] Une caméra UV permet de saisir l'image du gel et la quantification du volume et de l'intensité des bandes correspondant à l'ADNc et du cytochrome P450 aromatase se fait à l'aide d'un logiciel d'analyse d'image. […]

For a further assay, the system named is follicule pileux humain. The assay can be described thus: Growth of human hair follicle ex vivo. Format: cell-based. The note with it: 5 days of treatment, activity versus controls. The method, then: Les follicules pileux sont issus de scalp humain provenant du service de chirurgie plastique des hôpitaux ou des cliniques. La peau est rasée puis lavée dans 10 bains successifs de 10 min de PBS supplémentés d'antibiotiques (pénicilline 100 unités/ml et streptomycine 100 µg/ml). Les follicules en phase anagène reconnaissables car très vascularisés sont ensuite isolés de la peau sous la loupe binoculaire et débarrassés de la graisse. Ils sont ensuite incubés à 37°C dans des boîtes de culture dans du milieu de culture DMEM contenant le produit à tester. Le milieu de culture des follicules ne contient pas de sérum. Ce milieu est composé de 10µg/ml d'insuline, de 10 µg/ml de transferrine, de 10 µg/ml d'hydrocortisone, de 1% d'un mélange de pénicilline (100 uités /ml)-streptomycine (100µg/ml), de 2,5 µg/ml de fungizone et de la L-glutamine à 1mM.
Les follicules sont mis en présence de différentes concentrations de néoruscine (50, 100 et 300 µg/ml) (10 follicules par traitement). Les témoins sont cultivés dans du milieu sans produit.
La croissance de la tige des follicules pileux est mesurée à l'aide de papier millimétré sous loupe binoculaire au jour 0 et tous les jours pendant 5 jours. Une caméra numérique permet de saisir les images de follicules pileux et de calculer avec précision leur taux de croissance. Le pourcentage de croissance = (mesure Tx - mesure T0)/ mesure T0). [formula] […]

A further assay deals with gène du VEGF. The assay can be described thus: VEGF gene expression (RT-PCR) in dermal papilla cells. Type of assay: cell-based, humaine. The note with it: néoruscine 50 µg/ml, 3 h incubation. The method, then: La suspension de cellules de la papille folliculaire (10^6 cellules par boîte de 25 cm^2) dans le milieu DMEM est distribuée dans les boîtes de culture puis incubés pendant 12 heures à 37°C dans une atmosphère à 5 % de CO2. Les CPD sont ensuite rincées avec du PBS pour éliminer les cellules non adhérentes.
Pour chaque lot, les cellules sont pré-incubées pendant 3 heures avec les produits à tester préparés dans du DMEM. Les cellules sont ensuite rincées deux fois au PBS.
Après rinçage au PBS, les boîtes de culture sont déposées sur de la glace. Les cellules sont traitées avec la solution d'extraction d'ARN, RNAβTM (1 ml/boîte).
Les lysats cellulaires sont ensuite récupérés, centrifugés après avoir ajouté du chloroforme. Trois phases sont alors observables • inférieure contenant les débris cellulaires - interface contenant l'ADN • […] supérieure avec l'ARN
Les surnageants sont prélevés, les ARN sont précipités avec de l'isopropanol. […]
La quantité d'ARN ainsi que la pureté sont déterminées par spectrophotométrie (Chomczynski P., Sacchi N. Anal. Biochem. 1987; 162: […]). […]
Une caméra UV permet de saisir l'image du gel et la quantification du volume et de l'intensité des bandes correspondant à l'ADNc du VEGF se fait à l'aide d'un logiciel d'analyse d'image.

néoruscine: the “stimule la production du VEGF” value with VEGF turned out to be 329%. In addition, the “stimule la transcription du gène cytochrome P450 aromatase” value in assay [1] was 81%. Moreover, the entries for the “croissance des follicules pileux humains, activité du traitement” value in the assay on follicule pileux humain (néoruscine 100 µg/ml) and in the assay with follicule pileux humain (néoruscine 300 µg/ml) were 77,08% and 118,09%, respectively. In the assay with gène du VEGF, the “stimulation de la transcription du gène du VEGF” value is reported as 24,5%.
